The NIST ThermoML archive (doi:10.1021/je7003512)
± gives the expanded uncertainty stated by the source. Values belong to the compound of their own block, whether it stands above or below them.

Tests used:
[1] = refractive index (Na D-line) (dimensionless); conditions: 298.15 K; 101.33 kPa; Liquid; Standard Abbe refractometry
[2] = 298.15 K; 101.33 kPa; Liquid
[3] = refractive index (Na D-line) (dimensionless); xn = mol fraction of the nth substance listed; conditions: 298.15 K, 101 kPa, Liquid, Standard Abbe refractometry

SMILES: CC(C)CC(C)(C)C [2,2,4-trimethylpentane] + C=COCCC
- refractive index ([3]; x2 = 0): 1.39267 ± 0.00078

SMILES: CCO [ethanol]
- refractive index [1]: 1.36161 ± 0.00078
- mass density [2]: 785.32 ± 1.2 kg/m3

SMILES: CC(C)CC(C)(C)C [2,2,4-trimethylpentane]
- refractive index [1]: 1.39267 ± 0.00078
- mass density [2]: 688.18 ± 1.3 kg/m3

SMILES: CC(C)CC(C)(C)C [2,2,4-trimethylpentane] + CCO
- refractive index ([3]; x2 = 0): 1.39267 ± 0.00078
- refractive index ([3]; x2 = 0.052): 1.39087 ± 0.00078
- refractive index ([3]; x2 = 0.1002): 1.38995 ± 0.00078
- refractive index ([3]; x2 = 0.199): 1.38855 ± 0.00078
- refractive index ([3]; x2 = 0.2992): 1.38682 ± 0.00078
- refractive index ([3]; x2 = 0.3991): 1.38458 ± 0.00078
- refractive index ([3]; x2 = 0.5005): 1.38228 ± 0.00078
- refractive index ([3]; x2 = 0.6006): 1.37947 ± 0.00078
- refractive index ([3]; x2 = 0.7002): 1.37613 ± 0.00078
- refractive index ([3]; x2 = 0.8006): 1.37214 ± 0.00078
- refractive index ([3]; x2 = 0.8998): 1.36728 ± 0.00078
- refractive index ([3]; x2 = 0.9503): 1.36436 ± 0.00078

The remaining lines, values ahead:

- refractive index [1]: 1.39094 ± 0.00078
- mass density [2]: 762.98 ± 1.2 kg/m3
SMILES: C=COCCC [propyl vinyl ether]

- refractive index ([3]; x2 = 0): 1.36161 ± 0.00078
SMILES: CCO [ethanol] + C=COCCC

- refractive index ([3]; x1 = 0.0499): 1.36372 ± 0.00078
- refractive index ([3]; x1 = 0.1): 1.3655 ± 0.00078
- refractive index ([3]; x1 = 0.2002): 1.36949 ± 0.00078
- refractive index ([3]; x1 = 0.2996): 1.37356 ± 0.00078
- refractive index ([3]; x1 = 0.4004): 1.37689 ± 0.00078
- refractive index ([3]; x1 = 0.5006): 1.38018 ± 0.00079
- refractive index ([3]; x1 = 0.6005): 1.38262 ± 0.00078
- refractive index ([3]; x1 = 0.7005): 1.38517 ± 0.00078
- refractive index ([3]; x1 = 0.8002): 1.38724 ± 0.00078
- refractive index ([3]; x1 = 0.8997): 1.38925 ± 0.00078
- refractive index ([3]; x1 = 0.9492): 1.3901 ± 0.00078
- refractive index ([3]; x1 = 1): 1.39094 ± 0.00078
SMILES: C=COCCC [propyl vinyl ether] + CCO

- refractive index ([3]; x1 = 1): 1.36161 ± 0.00078
SMILES: CCO [ethanol] + CC(C)CC(C)(C)C

- refractive index [1]: 1.3267 ± 0.00082
- mass density [2]: 786.54 ± 1.2 kg/m3
SMILES: CO [methanol]

- refractive index ([3]; x1 = 0.0503): 1.39117 ± 0.00078
- refractive index ([3]; x1 = 0.1011): 1.39096 ± 0.00078
- refractive index ([3]; x1 = 0.2002): 1.39064 ± 0.00078
- refractive index ([3]; x1 = 0.3002): 1.39044 ± 0.00078
- refractive index ([3]; x1 = 0.3995): 1.39004 ± 0.00078
- refractive index ([3]; x1 = 0.4998): 1.38988 ± 0.00078
- refractive index ([3]; x1 = 0.6003): 1.38967 ± 0.00078
- refractive index ([3]; x1 = 0.7004): 1.38964 ± 0.00078
- refractive index ([3]; x1 = 0.7998): 1.38978 ± 0.00078
- refractive index ([3]; x1 = 0.9002): 1.39013 ± 0.00078
- refractive index ([3]; x1 = 0.9503): 1.39035 ± 0.00078
- refractive index ([3]; x1 = 1): 1.39094 ± 0.00078
SMILES: C=COCCC [propyl vinyl ether] + CC(C)CC(C)(C)C
